What all share (test): automated planar patch-clamp, whole-cell peak current
Holding throughout (format): cell-based

One assay has as its target T1, NaV1.1 (Homo sapiens, UniProt P35498).
T1 construct: gene SCN1A; full-length channel, stably expressed in HEK293T cells; beta subunits not mentioned
The note with it: holding -80 mV, 200 ms at -120 mV then test pulse to 0 mV every 2 s; 5 min exposure, cumulative 0.1-100 μM; 0.1% DMSO; pH 7.4; 27°C; n=9. From the text: automated planar patch-clamp, whole-cell peak current on NaV1.1

Another assay addresses T2, NaV1.7 (Homo sapiens, UniProt Q15858).
T2 construct: gene SCN9A; full-length channel, stably expressed in HEK293T cells; beta subunits not mentioned
To be noted: holding -80 mV, 200 ms at -120 mV then test pulse to 0 mV every 2 s; 5 min exposure, cumulative 0.1-100 μM; 0.1% DMSO; pH 7.4; 27°C; n=7. From the text:
automated planar patch-clamp, whole-cell peak current on NaV1.7

A further assay addresses T3, NaV1.2 (Homo sapiens, UniProt Q99250).
T3 construct: gene SCN2A; full-length channel, stably expressed in HEK293T cells; splice form and beta subunits not mentioned
The note with it: holding -80 mV, 200 ms at -120 mV then test pulse to 0 mV every 2 s; 5 min exposure, cumulative 0.1-100 μM; 0.1% DMSO; pH 7.4; 27°C; n=6. From the text:
automated planar patch-clamp, whole-cell peak current on NaV1.2

T2 sequence (Q15858 whole entry): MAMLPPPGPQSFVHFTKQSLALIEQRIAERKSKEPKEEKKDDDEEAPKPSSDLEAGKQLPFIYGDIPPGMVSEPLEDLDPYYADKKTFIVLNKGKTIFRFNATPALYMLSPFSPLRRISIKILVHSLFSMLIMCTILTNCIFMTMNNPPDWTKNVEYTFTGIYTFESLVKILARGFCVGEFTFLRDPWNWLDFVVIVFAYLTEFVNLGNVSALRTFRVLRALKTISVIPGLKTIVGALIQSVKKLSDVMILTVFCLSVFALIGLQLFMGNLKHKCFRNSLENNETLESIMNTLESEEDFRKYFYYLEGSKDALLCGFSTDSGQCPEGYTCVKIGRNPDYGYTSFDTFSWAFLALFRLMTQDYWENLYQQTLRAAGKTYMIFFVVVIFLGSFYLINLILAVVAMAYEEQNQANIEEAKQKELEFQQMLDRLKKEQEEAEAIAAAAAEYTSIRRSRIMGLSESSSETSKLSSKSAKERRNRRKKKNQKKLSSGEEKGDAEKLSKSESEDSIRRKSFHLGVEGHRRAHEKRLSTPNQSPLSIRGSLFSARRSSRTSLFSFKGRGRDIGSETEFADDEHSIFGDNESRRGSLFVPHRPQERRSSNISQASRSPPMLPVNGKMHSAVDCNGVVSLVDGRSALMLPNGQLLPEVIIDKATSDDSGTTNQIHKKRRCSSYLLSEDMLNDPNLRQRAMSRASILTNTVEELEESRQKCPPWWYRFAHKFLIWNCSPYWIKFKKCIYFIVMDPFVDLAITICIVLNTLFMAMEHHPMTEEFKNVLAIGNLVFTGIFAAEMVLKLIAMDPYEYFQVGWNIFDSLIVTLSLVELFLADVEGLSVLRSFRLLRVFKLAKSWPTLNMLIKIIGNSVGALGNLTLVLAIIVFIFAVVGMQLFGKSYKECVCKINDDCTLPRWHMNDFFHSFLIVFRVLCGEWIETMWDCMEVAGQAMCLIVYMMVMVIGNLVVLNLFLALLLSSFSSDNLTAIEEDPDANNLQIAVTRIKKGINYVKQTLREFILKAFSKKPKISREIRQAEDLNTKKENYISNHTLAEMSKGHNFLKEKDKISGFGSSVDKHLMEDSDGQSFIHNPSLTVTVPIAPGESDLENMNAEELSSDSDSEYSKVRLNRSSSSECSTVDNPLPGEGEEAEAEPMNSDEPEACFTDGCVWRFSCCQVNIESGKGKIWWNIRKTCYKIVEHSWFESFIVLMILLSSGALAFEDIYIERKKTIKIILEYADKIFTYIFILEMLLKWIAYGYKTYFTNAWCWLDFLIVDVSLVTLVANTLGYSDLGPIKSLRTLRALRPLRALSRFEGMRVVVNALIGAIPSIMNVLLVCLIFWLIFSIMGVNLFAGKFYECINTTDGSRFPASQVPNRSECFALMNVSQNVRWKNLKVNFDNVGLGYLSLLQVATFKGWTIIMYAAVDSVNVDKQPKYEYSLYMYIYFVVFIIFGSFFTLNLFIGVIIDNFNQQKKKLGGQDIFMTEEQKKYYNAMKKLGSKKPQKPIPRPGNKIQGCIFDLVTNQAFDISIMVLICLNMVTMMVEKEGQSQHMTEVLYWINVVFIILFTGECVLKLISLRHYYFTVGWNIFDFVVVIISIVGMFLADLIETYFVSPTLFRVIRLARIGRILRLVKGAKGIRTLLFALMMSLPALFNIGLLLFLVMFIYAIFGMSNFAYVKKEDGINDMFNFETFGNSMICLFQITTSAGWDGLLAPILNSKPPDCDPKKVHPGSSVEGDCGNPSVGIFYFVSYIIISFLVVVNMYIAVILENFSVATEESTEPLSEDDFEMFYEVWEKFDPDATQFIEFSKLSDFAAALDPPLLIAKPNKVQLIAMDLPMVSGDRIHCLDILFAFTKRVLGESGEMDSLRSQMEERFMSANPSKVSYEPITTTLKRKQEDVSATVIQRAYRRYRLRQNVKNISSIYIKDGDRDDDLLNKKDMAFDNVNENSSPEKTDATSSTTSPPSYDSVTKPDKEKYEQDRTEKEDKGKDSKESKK
T3 sequence (Q99250 whole entry, canonical isoform): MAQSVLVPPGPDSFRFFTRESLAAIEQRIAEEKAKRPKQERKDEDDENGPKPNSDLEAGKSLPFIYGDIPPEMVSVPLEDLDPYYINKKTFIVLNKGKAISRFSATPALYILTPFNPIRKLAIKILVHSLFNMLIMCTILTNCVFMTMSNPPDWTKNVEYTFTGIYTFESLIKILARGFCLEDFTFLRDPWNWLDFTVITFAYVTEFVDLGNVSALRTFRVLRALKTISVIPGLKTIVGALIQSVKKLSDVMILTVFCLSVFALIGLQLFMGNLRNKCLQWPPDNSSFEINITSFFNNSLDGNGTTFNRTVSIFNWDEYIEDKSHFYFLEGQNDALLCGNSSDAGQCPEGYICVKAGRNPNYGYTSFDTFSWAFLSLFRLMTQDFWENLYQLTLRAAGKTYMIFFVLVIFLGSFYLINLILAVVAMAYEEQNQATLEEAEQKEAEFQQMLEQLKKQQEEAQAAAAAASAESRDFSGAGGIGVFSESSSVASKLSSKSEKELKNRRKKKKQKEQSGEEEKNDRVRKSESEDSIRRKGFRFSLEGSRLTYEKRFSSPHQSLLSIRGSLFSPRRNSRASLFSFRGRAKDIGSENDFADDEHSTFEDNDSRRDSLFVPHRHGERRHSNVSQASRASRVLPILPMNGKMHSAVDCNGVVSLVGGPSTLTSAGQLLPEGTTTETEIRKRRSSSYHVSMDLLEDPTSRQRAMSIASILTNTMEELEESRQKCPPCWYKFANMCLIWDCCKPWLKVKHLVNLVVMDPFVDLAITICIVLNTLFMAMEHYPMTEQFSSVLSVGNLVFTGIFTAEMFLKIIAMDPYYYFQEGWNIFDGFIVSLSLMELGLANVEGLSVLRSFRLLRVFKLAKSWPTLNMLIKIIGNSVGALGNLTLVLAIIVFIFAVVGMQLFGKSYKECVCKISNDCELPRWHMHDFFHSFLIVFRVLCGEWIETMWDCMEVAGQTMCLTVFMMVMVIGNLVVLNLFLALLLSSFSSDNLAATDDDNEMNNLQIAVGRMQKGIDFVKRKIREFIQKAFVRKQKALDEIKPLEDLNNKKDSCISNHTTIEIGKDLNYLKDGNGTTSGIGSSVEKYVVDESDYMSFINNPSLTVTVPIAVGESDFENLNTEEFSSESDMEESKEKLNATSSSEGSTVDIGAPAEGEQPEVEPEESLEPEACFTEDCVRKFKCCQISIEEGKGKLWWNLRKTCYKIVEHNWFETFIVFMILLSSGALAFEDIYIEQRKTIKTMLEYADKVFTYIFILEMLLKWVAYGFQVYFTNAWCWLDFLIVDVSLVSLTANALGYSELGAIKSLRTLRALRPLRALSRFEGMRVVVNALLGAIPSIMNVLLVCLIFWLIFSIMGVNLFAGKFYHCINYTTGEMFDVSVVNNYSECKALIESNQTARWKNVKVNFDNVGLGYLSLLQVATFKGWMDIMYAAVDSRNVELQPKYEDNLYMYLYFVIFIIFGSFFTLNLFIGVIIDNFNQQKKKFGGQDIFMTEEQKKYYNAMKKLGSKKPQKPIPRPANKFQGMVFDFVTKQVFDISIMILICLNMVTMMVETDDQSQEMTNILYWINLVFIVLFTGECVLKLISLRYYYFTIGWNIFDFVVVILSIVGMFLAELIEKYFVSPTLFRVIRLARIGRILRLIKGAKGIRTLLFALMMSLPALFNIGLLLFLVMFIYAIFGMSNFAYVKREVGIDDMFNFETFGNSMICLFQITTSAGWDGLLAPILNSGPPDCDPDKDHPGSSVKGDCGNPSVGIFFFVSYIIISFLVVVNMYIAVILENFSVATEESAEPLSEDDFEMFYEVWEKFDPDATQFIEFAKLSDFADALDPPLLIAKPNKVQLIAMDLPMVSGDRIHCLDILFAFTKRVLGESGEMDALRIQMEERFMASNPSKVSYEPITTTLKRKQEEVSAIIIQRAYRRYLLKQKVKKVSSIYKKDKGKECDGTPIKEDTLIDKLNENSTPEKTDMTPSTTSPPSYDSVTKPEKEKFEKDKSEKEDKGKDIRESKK

Broadly, the IC50 is the point on the concentration scale where inhibition reaches its midpoint. High values mean lower potency, low ones higher potency. In the case of `C=C(C)[C@@H]1CCC(C)=C[C@H]1c1c(O)cc(CCCCC)cc1O` [CBD], the IC50 at NaV1.1 turned out to be 18.5 ± 2.2 µM; on NaV1.7 it was 11.9 ± 2.2 µM; at NaV1.2, 18.4 ± 2.6 µM.

Values taken from PMC9185959, “A nutraceutical product, extracted from Cannabis sativa, modulates voltage-gated sodium channel function” (Journal of Cannabis Research, 2022).
